The values that follow come from patent publication US8354423B2, “Insecticidal spironindane derivatives” (priority 2003, dated 2013).

Broadly, the melting point is the temperature of the solid-liquid transition.

`O=C(N/N=C1\CC2(CCN(C/C=C/c3ccc(Cl)cc3)CC2)c2ccccc21)Nc1ccc(OC(F)(F)F)cc1` returned a melting point of 225 °C.
